{
  "source": "patent US10202377B2",
  "about": "“3-(1H-benzo[D]imidazol-2-yl)-1H-pyrazolo[3,4-C]pyridine and therapeutic uses thereof” (Samumed, LLC, priority 2014, dated 2019)",
  "key": {"[1]": {"test_system": "primary human fibroblasts derived from IPF patients (LL29 cells)", "assay": "Inhibition of fibrosis (αSMA staining) in TGF-β1-treated primary human fibroblasts from IPF patients", "type": "cell-based", "settings": "Fibroblast, 96 h, TGF-β1 20 ng/mL, 4 days", "procedure,_shortened": "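LL29 IPF fibroblasts in F12 with 1% FBS were stimulated with TGF-β1 (20 ng/mL) and incubated 4 days at 37 °C. SYTOX-positive dead cells were excluded, and αSMA-positive cells were counted by immunostaining as % of total. Values were normalized to TGF-β1/DMSO wells on the same plate, and EC50 derived.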"}, "[2]": {"test_system": "Wnt activity (Sp5-Luc reporter, SW480 colon carcinoma cells)", "assay": "Sp5-Luc Wnt reporter gene screening assay in SW480 colon carcinoma cells", "settings": "Homo sapiens", "procedure": "The screening assay for Wnt activity is described as follows.\nSW480 colon carcinoma cells were transduced with a lentiviral vector expressing luciferase with a human Sp5 promoter consisting of a sequence of eight TCF/LEF binding sites. SW480 cells stably expressing the Sp5-Luc reporter gene and a hygromycin resistance gene were selected by treatment with 150 μg/ml of hygromycin for 7 days. These stably transduced SW480 cells were expanded in cell culture and used for all further screening activities. For Sp5-Luc reporter gene assays, the cells were plated at 10,000 cells/well in 96-well plates with growth medium containing 10% fetal calf serum and incubated overnight at 37° C. and 5% CO2. […] Compound transfer from serially diluted source plates to assay plates containing the cells was accomplished using a pintool (Multimek 96, Beckman equipped with V&P Scientific FP1S50H pins) based liquid handling protocol. This protocol used a slotted pin to transfer 50 nl of compound from a source plate well to an assay plate well containing 50 μl of cells in growth medium. […] Control wells received 50 nl of DMSO treatment for normalization and calculating IC50 values. The treated cells were incubated at 37° C. and 5% CO2 for an additional forty-two hours. Following incubation, the growth medium was removed and 50 μl of BrightGlo luminescence reagent (Promega) was added to each well of the 96-well assay plates. The plates were placed on an orbital shaker for 5 min and then luminescence was quantified on the Victor3 (Perkin Elmer) plate reader."}},
  "data": [
    {"compound": "FC1(F)CCN(Cc2cncc(-c3cc4c(-c5nc6c(-c7cccs7)cccc6[nH]5)n[nH]c4cn3)c2)C1", "note": "[Compound 337, 5-(5-((3,3-Difluoropyrrolidin-1-yl)methyl)pyridin-3-yl)-3-(4-(thiophen-2-yl)-1H-benzo[d]imidazol-2-yl)-1H-pyrazolo[3,4-c]pyridine]", "values": [
      {"measurement": "EC50", "setting": "[1]", "result": 9, "unit": "nM"},
      {"measurement": "IC50", "setting": "[2]", "result": 90.8, "unit": "nM"}
    ]},
    {"compound": "CCCCC(=O)Nc1cncc(-c2cc3c(-c4nc5c(-c6ccccn6)cccc5[nH]4)n[nH]c3cn2)c1", "note": "[Compound 148, N-(5-(3-(4-(Pyridin-2-yl)-1H-benzo[d]imidazol-2-yl)-1H-pyrazolo[3,4-c]pyridin-5-yl)pyridin-3-yl)pentanamide]", "values": [
      {"measurement": "EC50", "setting": "[1]", "result": 225, "unit": "nM"},
      {"measurement": "IC50", "setting": "[2]", "result": 177, "unit": "nM"}
    ]},
    {"compound": "c1ccc(CNCc2cncc(-c3cc4c(-c5nc6c(-c7cccnc7)cccc6[nH]5)n[nH]c4cn3)c2)cc1", "note": "[Compound 101, N-Benzyl-1-(5-(3-(4-(pyridin-3-yl)-1H-benzo[d]imidazol-2-yl)-1H-pyrazolo[3,4-c]pyridin-5-yl)pyridin-3-yl)methanamine]", "values": [
      {"measurement": "EC50", "setting": "[1]", "result": 9, "unit": "nM"},
      {"measurement": "IC50", "setting": "[2]", "result": 183, "unit": "nM"}
    ]},
    {"compound": "Cc1cn(-c2cccc3[nH]c(-c4n[nH]c5cnc(-c6cncc(NC(=O)C(C)(C)C)c6)cc45)nc23)cn1", "note": "[Compound 190, N-(5-(3-(4-(4-Methyl-1H-imidazol-1-yl)-1H-benzo[d]imidazol-2-yl)-1H-pyrazolo[3,4-c]pyridin-5-yl)pyridin-3-yl)pivalamide]", "values": [
      {"measurement": "EC50", "setting": "[1]", "result": 9, "unit": "nM"},
      {"measurement": "IC50", "setting": "[2]", "result": 53.5, "unit": "nM"}
    ]},
    {"compound": "CC(C)(C)C(=O)Nc1cncc(-c2cc3c(-c4nc5c(-c6cc(F)cc(CNS(C)(=O)=O)c6)cccc5[nH]4)n[nH]c3cn2)c1", "note": "[Compound 424, N-(5-(3-(4-(3-Fluoro-5-(methylsulfonamidomethyl)phenyl)-1H-benzo[d]imidazol-2-yl)-1H-pyrazolo[3,4-c]pyridin-5-yl)pyridin-3-yl)pivalamide]", "values": [
      {"measurement": "EC50", "setting": "[1]", "result": 51, "unit": "nM"},
      {"measurement": "IC50", "setting": "[2]", "result": 19.9, "unit": "nM"}
    ]},
    {"compound": "CCNCc1cncc(-c2cc3c(-c4nc5c(-c6ccccn6)cccc5[nH]4)n[nH]c3cn2)c1", "note": "[Compound 136, N-((5-(3-(4-(Pyridin-2-yl)-1H-benzo[d]imidazol-2-yl)-1H-pyrazolo[3,4-c]pyridin-5-yl)pyridin-3-yl)methyl)ethanamine]", "values": [
      {"measurement": "EC50", "setting": "[1]", "result": 122, "unit": "nM"},
      {"measurement": "IC50", "setting": "[2]", "result": 177, "unit": "nM"}
    ]},
    {"compound": "CC(=O)c1ccc(-c2cccc3[nH]c(-c4n[nH]c5cnc(-c6cncc(NC(=O)Cc7ccccc7)c6)cc45)nc23)s1", "note": "[Compound 400, N-(5-(3-(4-(5-Acetylthiophen-2-yl)-1H-benzo[d]imidazol-2-yl)-1H-pyrazolo[3,4-c]pyridin-5-yl)pyridin-3-yl)-2-phenylacetamide]", "values": [
      {"measurement": "EC50", "setting": "[1]", "result": 218, "unit": "nM"},
      {"measurement": "IC50", "setting": "[2]", "result": 42.3, "unit": "nM"}
    ]},
    {"compound": "Fc1ccc(-c2cccc3[nH]c(-c4n[nH]c5cnc(-c6cncnc6)cc45)nc23)cc1", "note": "[Compound 52, 3-(4-(4-Fluorophenyl)-1H-benzo[d]imidazol-2-yl)-5-(pyrimidin-5-yl)-1H-pyrazolo[3,4-c]pyridine]", "values": [
      {"measurement": "EC50", "setting": "[1]", "result": 147, "unit": "nM"},
      {"measurement": "IC50", "setting": "[2]", "result": 122, "unit": "nM"}
    ]},
    {"compound": "O=C(Cc1ccccc1)Nc1cncc(-c2cc3c(-c4nc5ccccc5[nH]4)n[nH]c3cn2)c1", "note": "[Compound 244, N-(5-(3-(1H-Benzo[d]imidazol-2-yl)-1H-pyrazolo[3,4-c]pyridin-5-yl)pyridin-3-yl)-2-phenylacetamide]", "values": [
      {"measurement": "EC50", "setting": "[1]", "result": 1960, "unit": "nM"},
      {"measurement": "IC50", "setting": "[2]", "result": 211, "unit": "nM"}
    ]},
    {"compound": "Cc1ccc(-c2cccc3[nH]c(-c4n[nH]c5cnc(-c6cncc(CN7CCCCC7)c6)cc45)nc23)s1", "note": "[Compound 379, 3-(4-(5-Methylthiophen-2-yl)-1H-benzo[d]imidazol-2-yl)-5-(5-(piperidin-1-ylmethyl)pyridin-3-yl)-1H-pyrazolo[3,4-c]pyridine]", "values": [
      {"measurement": "EC50", "setting": "[1]", "result": 9, "unit": "nM"},
      {"measurement": "IC50", "setting": "[2]", "result": 359, "unit": "nM"}
    ]},
    {"compound": "O=C(Nc1cncc(-c2cc3c(-c4nc5c(-c6ccncc6)cccc5[nH]4)n[nH]c3cn2)c1)C1CCCCC1", "note": "[Compound 126, N-(5-(3-(4-(Pyridin-4-yl)-1H-benzo[d]imidazol-2-yl)-1H-pyrazolo[3,4-c]pyridin-5-yl)pyridin-3-yl)cyclohexanecarboxamide]", "values": [
      {"measurement": "EC50", "setting": "[1]", "result": 9990, "unit": "nM"},
      {"measurement": "IC50", "setting": "[2]", "result": "> 10000", "unit": "nM"}
    ]},
    {"compound": "O=C(Nc1cncc(-c2cc3c(-c4nc5c(-c6ccc(F)s6)cccc5[nH]4)n[nH]c3cn2)c1)C1CCC1", "note": "[Compound 358, N-(5-(3-(4-(5-Fluorothiophen-2-yl)-1H-benzo[d]imidazol-2-yl)-1H-pyrazolo[3,4-c]pyridin-5-yl)pyridin-3-yl)cyclobutanecarboxamide]", "values": [
      {"measurement": "EC50", "setting": "[1]", "result": 9990, "unit": "nM"},
      {"measurement": "IC50", "setting": "[2]", "result": 11.6, "unit": "nM"}
    ]},
    {"compound": "CCCC(=O)Nc1cncc(-c2cc3c(-c4nc5c(-c6cccs6)cccc5[nH]4)n[nH]c3cn2)c1", "note": "[Compound 329, N-(5-(3-(4-(Thiophen-2-yl)-1H-benzo[d]imidazol-2-yl)-1H-pyrazolo[3,4-c]pyridin-5-yl)pyridin-3-yl)butyramide]", "values": [
      {"measurement": "EC50", "setting": "[1]", "result": 67, "unit": "nM"},
      {"measurement": "IC50", "setting": "[2]", "result": 56, "unit": "nM"}
    ]},
    {"compound": "Cc1ccc(-c2cccc3[nH]c(-c4n[nH]c5cnc(-c6cncc(NC(=O)CC(C)C)c6)cc45)nc23)s1", "note": "[Compound 366, 3-Methyl-N-(5-(3-(4-(5-methylthiophen-2-yl)-1H-benzo[d]imidazol-2-yl)-1H-pyrazolo[3,4-c]pyridin-5-yl)pyridin-3-yl)butanamide]", "values": [
      {"measurement": "EC50", "setting": "[1]", "result": 224, "unit": "nM"},
      {"measurement": "IC50", "setting": "[2]", "result": 31.1, "unit": "nM"}
    ]},
    {"compound": "CCNCc1cncc(-c2cc3c(-c4nc5c(-c6ccoc6)cccc5[nH]4)n[nH]c3cn2)c1", "note": "[Compound 292, N-((5-(3-(4-(Furan-3-yl)-1H-benzo[d]imidazol-2-yl)-1H-pyrazolo[3,4-c]pyridin-5-yl)pyridin-3-yl)methyl)ethanamine]", "values": [
      {"measurement": "EC50", "setting": "[1]", "result": 9, "unit": "nM"},
      {"measurement": "IC50", "setting": "[2]", "result": 29.6, "unit": "nM"}
    ]},
    {"compound": "CCC(=O)Nc1cncc(-c2cc3c(-c4nc5c(-c6cccc(F)c6)cccc5[nH]4)n[nH]c3cn2)c1", "note": "[Compound 1, N-(5-(3-(4-(3-Fluorophenyl)-1H-benzo[d]imidazol-2-yl)-1H-pyrazolo[3,4-c]pyridin-5-yl)pyridin-3-yl)propionamide]", "values": [
      {"measurement": "EC50", "setting": "[1]", "result": 9, "unit": "nM"},
      {"measurement": "IC50", "setting": "[2]", "result": 43.9, "unit": "nM"}
    ]},
    {"compound": "CCCCC(=O)Nc1cncc(-c2cc3c(-c4nc5c(-c6cc(F)cc(NCCN(C)C)c6)cccc5[nH]4)n[nH]c3cn2)c1", "note": "[Compound 460, N-(5-(3-(4-(3-((2-(Dimethylamino)ethyl)amino)-5-fluorophenyl)-1H-benzo[d]imidazol-2-yl)-1H-pyrazolo[3,4-c]pyridin-5-yl)pyridin-3-yl)pentanamide]", "values": [
      {"measurement": "EC50", "setting": "[1]", "result": 1060, "unit": "nM"},
      {"measurement": "IC50", "setting": "[2]", "result": 182, "unit": "nM"}
    ]},
    {"compound": "CC(C)C(=O)Nc1cncc(-c2cc3c(-c4nc5c(-c6cccs6)cccc5[nH]4)n[nH]c3cn2)c1", "note": "[Compound 321, N-(5-(3-(4-(Thiophen-2-yl)-1H-benzo[d]imidazol-2-yl)-1H-pyrazolo[3,4-c]pyridin-5-yl)pyridin-3-yl)isobutyramide]", "values": [
      {"measurement": "EC50", "setting": "[1]", "result": 306, "unit": "nM"},
      {"measurement": "IC50", "setting": "[2]", "result": 16.3, "unit": "nM"}
    ]},
    {"compound": "CC(=O)c1ccc(-c2cccc3[nH]c(-c4n[nH]c5cnc(-c6cncc(NC(=O)C7CCCCC7)c6)cc45)nc23)s1", "note": "[Compound 412, N-(5-(3-(4-(5-Acetylthiophen-2-yl)-1H-benzo[d]imidazol-2-yl)-1H-pyrazolo[3,4-c]pyridin-5-yl)pyridin-3-yl)cyclohexanecarboxamide]", "values": [
      {"measurement": "EC50", "setting": "[1]", "result": 9180, "unit": "nM"},
      {"measurement": "IC50", "setting": "[2]", "result": 150, "unit": "nM"}
    ]},
    {"compound": "CC(C)(C)C(=O)Nc1cncc(-c2cc3c(-c4nc5c(-c6ccoc6)cccc5[nH]4)n[nH]c3cn2)c1", "note": "[Compound 294, N-(5-(3-(4-(Furan-3-yl)-1H-benzo[d]imidazol-2-yl)-1H-pyrazolo[3,4-c]pyridin-5-yl)pyridin-3-yl)pivalamide]", "values": [
      {"measurement": "EC50", "setting": "[1]", "result": 9, "unit": "nM"},
      {"measurement": "IC50", "setting": "[2]", "result": 48.6, "unit": "nM"}
    ]},
    {"compound": "CC(C)Nc1cncc(-c2cc3c(-c4nc5c(-c6cccnc6)cccc5[nH]4)n[nH]c3cn2)c1", "note": "[Compound 90, N-Isopropyl-5-(3-(4-(pyridin-3-yl)-1H-benzo[d]imidazol-2-yl)-1H-pyrazolo[3,4-c]pyridin-5-yl)pyridin-3-amine]", "values": [
      {"measurement": "EC50", "setting": "[1]", "result": 9, "unit": "nM"},
      {"measurement": "IC50", "setting": "[2]", "result": 13.9, "unit": "nM"}
    ]},
    {"compound": "CS(=O)(=O)NCc1cc(F)cc(-c2cccc3[nH]c(-c4n[nH]c5cnc(-c6cncc(CNCc7ccccc7)c6)cc45)nc23)c1", "note": "[Compound 439, N-(3-(2-(5-(5-((Benzylamino)methyl)pyridin-3-yl)-1H-pyrazolo[3,4-c]pyridin-3-yl)-1H-benzo[d]imidazol-4-yl)-5-fluorobenzyl)methanesulfonamide]", "values": [
      {"measurement": "EC50", "setting": "[1]", "result": 9, "unit": "nM"},
      {"measurement": "IC50", "setting": "[2]", "result": 40.1, "unit": "nM"}
    ]},
    {"compound": "O=C(Nc1cncc(-c2cc3c(-c4nc5c(N6CCCCC6)cccc5[nH]4)n[nH]c3cn2)c1)C1CC1", "note": "[Compound 175, N-(5-(3-(4-(Piperidin-1-yl)-1H-benzo[d]imidazol-2-yl)-1H-pyrazolo[3,4-c]pyridin-5-yl)pyridin-3-yl)cyclopropanecarboxamide]", "values": [
      {"measurement": "EC50", "setting": "[1]", "result": 187, "unit": "nM"},
      {"measurement": "IC50", "setting": "[2]", "result": 76.9, "unit": "nM"}
    ]},
    {"compound": "CCCC(=O)Nc1cncc(-c2cc3c(-c4nc5c(-c6ccsc6)cccc5[nH]4)n[nH]c3cn2)c1", "note": "[Compound 277, N-(5-(3-(4-(Thiophen-3-yl)-1H-benzo[d]imidazol-2-yl)-1H-pyrazolo[3,4-c]pyridin-5-yl)pyridin-3-yl)butyramide]", "values": [
      {"measurement": "EC50", "setting": "[1]", "result": 9, "unit": "nM"},
      {"measurement": "IC50", "setting": "[2]", "result": 43.5, "unit": "nM"}
    ]}
  ]
}
